Test systems include SK-MEL-28 melanoma; IGROV1 ovarian; HCT-116 colon; OVCAR-5 ovarian; SR leukemia; SNB-19 CNS; M14 melanoma; LOX IMVI melanoma; SW-620 colon; HOP-92 NSCLC.
Common to all, as to experiment: growth of human tumour cells (NCI), 48 h

The values below come from PubChem BioAssay (NCI).

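Interpolation was linear, between the two tested concentrations surrounding the appropriate level; five concentrations were tested over 48 hours in 96-well plates. At the GI50, growth is halved. TGI: concentration producing complete growth inhibition.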 Bounds are passed on as bounds.

As for `OCCNc1nc2c(N3CCCC3)nc(N3CCNCC3)nc2nc1NCc1ccccc1`, the TGI in the assay with SK-MEL-28 melanoma came to 32.5 µM; with IGROV1 ovarian, 25.5 µM; in the assay on HCT-116 colon, 21.9 µM; in the assay with OVCAR-5 ovarian it was 24.7 µM; with SR leukemia, 32.7 µM; in the assay with SNB-19 CNS, 29.4 µM. Besides, the TGI in the assay with M14 melanoma was found to be 29.4 µM; in the assay on LOX IMVI melanoma, 29.1 µM; in the assay on SW-620 colon, 42.4 µM; in the assay with HOP-92 NSCLC, 21.8 µM.
Take `CSc1nc(=O)c(C#N)c(-c2ccccc2)n1C1OC(COC(C)=O)C(OC(C)=O)C(OC(C)=O)C1OC(C)=O` (stereo not given): the TGI in the assay on SK-MEL-28 melanoma, in the assay on IGROV1 ovarian, in the assay on HCT-116 colon, in the assay with OVCAR-5 ovarian, in the assay on SR leukemia and in the assay with SNB-19 CNS was more than 100 µM throughout. The TGI in the assay on M14 melanoma, in the assay on LOX IMVI melanoma, with SW-620 colon and in the assay on HOP-92 NSCLC was more than 100 µM in each case.
As for `CC1CN=C(N(C)C(=O)Nc2ccc(Cl)c(Cl)c2)S1` (stereo not given), the TGI with SK-MEL-28 melanoma is 37.9 µM; in the assay with IGROV1 ovarian, more than 100 µM; in the assay with HCT-116 colon it was more than 100 µM; with OVCAR-5 ovarian, 89.9 µM; in the assay on SR leukemia it was more than 100 µM; in the assay on SNB-19 CNS it was more than 100 µM. The TGI in the assay on M14 melanoma was 38 µM; with LOX IMVI melanoma, 91.4 µM; in the assay on SW-620 colon it was more than 100 µM; in the assay on HOP-92 NSCLC, 22.9 µM.
For `Clc1ccc(-c2nn3c(C45CC6CC(CC(C6)C4)C5)nnc3s2)cc1`, the TGI in the assay on SK-MEL-28 melanoma, in the assay on IGROV1 ovarian, with HCT-116 colon, with OVCAR-5 ovarian, with SR leukemia and in the assay on SNB-19 CNS was more than 100 µM throughout. Moreover, the TGI with M14 melanoma, with LOX IMVI melanoma, with SW-620 colon and in the assay on HOP-92 NSCLC was more than 100 µM throughout.
As for `O=C1OC(C(O)C(O)C(O)CO)C(O)C1O` (stereo not given), the TGI in the assay on SK-MEL-28 melanoma, in the assay on IGROV1 ovarian, in the assay on HCT-116 colon, in the assay with OVCAR-5 ovarian, in the assay on SR leukemia and with SNB-19 CNS was more than 100 µM throughout. Further, the TGI in the assay with M14 melanoma, with LOX IMVI melanoma, with SW-620 colon and in the assay with HOP-92 NSCLC was more than 100 µM in each case.
Consider `CCOC(=O)C12C(=O)CCN1CCc1ccccc1C2C` (stereo not given), for which the TGI in the assay on SK-MEL-28 melanoma, in the assay with IGROV1 ovarian, with HCT-116 colon, in the assay with OVCAR-5 ovarian, in the assay on SR leukemia and in the assay on SNB-19 CNS was more than 100 µM each time. In addition, the TGI in the assay on M14 melanoma, in the assay with LOX IMVI melanoma, in the assay with SW-620 colon and with HOP-92 NSCLC was more than 100 µM each time.
For the compound `OC1(c2ccc(Cl)cc2)c2ccccc2C2=NCc3ccccc3CN21` (stereo not given), the TGI was 9.58 µM in the assay with SK-MEL-28 melanoma; 9.63 µM in the assay on IGROV1 ovarian; 19.2 µM with HCT-116 colon; 26 µM in the assay on OVCAR-5 ovarian; more than 56.3 µM with SR leukemia; 13.4 µM with SNB-19 CNS. Also, the TGI came out at 8.08 µM in the assay on M14 melanoma, 24.3 µM in the assay with LOX IMVI melanoma, 15.8 µM in the assay with SW-620 colon and 41.4 µM in the assay on HOP-92 NSCLC.
Turning to `Cc1ccc(CC(=O)Nc2ccc(NC(=O)CNC(=O)/C=C/c3ccc(-c4ccccc4)cc3)cc2C(=O)c2ccccc2)cc1`, the TGI in the assay on SK-MEL-28 melanoma turned out to be 66.6 µM; in the assay on IGROV1 ovarian it was 21.7 µM; in the assay with HCT-116 colon it was 2.65 µM; in the assay with OVCAR-5 ovarian, 23.1 µM; with SR leukemia it was 4.95 µM; in the assay on SNB-19 CNS it was 20.3 µM. In addition, the TGI with M14 melanoma was found to be 17.3 µM; in the assay with LOX IMVI melanoma, 13.4 µM; in the assay on SW-620 colon it was 19.5 µM; in the assay on HOP-92 NSCLC, 15.4 µM.
As for `C=C1[C@H](OCC(C)C)[C@@H](OC(=O)C(C)CC)[C@@H](O)C(C)(C)/C=C/[C@H](C)C(=O)[C@@]2(O)C[C@H](C)[C@H](O)[C@@H]2[C@H]1OC(=O)C(C)CC` (stereo not given in full), the TGI in the assay with SK-MEL-28 melanoma was more than 20 µM; with IGROV1 ovarian it was more than 20 µM; in the assay with HCT-116 colon, more than 20 µM; in the assay on OVCAR-5 ovarian, more than 17.7 µM; in the assay with SR leukemia, more than 10.5 µM; in the assay on SNB-19 CNS, more than 20 µM. The TGI in the assay on M14 melanoma was more than 11.1 µM; in the assay on LOX IMVI melanoma, more than 13.3 µM; with SW-620 colon, more than 20 µM; with HOP-92 NSCLC it was more than 20 µM.
Take `CC(C)(CN1CCCCC1)C(=O)/C=C/c1c(Cl)cccc1Cl`: the TGI in the assay on SK-MEL-28 melanoma is 3.2 µM; in the assay on IGROV1 ovarian it was 1.13 µM; in the assay with HCT-116 colon, 2.02 µM; in the assay with OVCAR-5 ovarian it was 2.97 µM; in the assay on SR leukemia, more than 100 µM; with SNB-19 CNS it was 8.39 µM. For the same compound, the TGI was found to be 2.32 µM in the assay with M14 melanoma, 2.68 µM in the assay with LOX IMVI melanoma, 2.29 µM in the assay on SW-620 colon and 2.34 µM with HOP-92 NSCLC.
`Cc1ccnc2sc3ccccc3c(=O)c12`: the TGI in the assay on SK-MEL-28 melanoma, in the assay with IGROV1 ovarian, with HCT-116 colon, in the assay on OVCAR-5 ovarian, in the assay on SR leukemia and with SNB-19 CNS was more than 100 µM throughout. The TGI in the assay with M14 melanoma, in the assay with LOX IMVI melanoma, with SW-620 colon and in the assay with HOP-92 NSCLC was more than 100 µM in each case.
Consider `COC1CCC(n2c([C@@H]3CCCC(=O)N3c3ccc(F)c(F)c3)nc3cc(-c4c(C)noc4C)ccc32)CC1` (stereo not given in full), for which the GI50 in the assay with SK-MEL-28 melanoma was 11.8 µM; in the assay on IGROV1 ovarian, 4.61 µM; with HCT-116 colon it was 10 µM; with OVCAR-5 ovarian, 17.2 µM; in the assay on SR leukemia it was 0.755 µM; with SNB-19 CNS it was 9.31 µM. For the same compound, the GI50 in the assay on M14 melanoma is 1.87 µM; in the assay with LOX IMVI melanoma it was 4.13 µM; in the assay with SW-620 colon, 19.1 µM; with HOP-92 NSCLC, 2.04 µM. Further, the TGI with SK-MEL-28 melanoma is 28.1 µM; with IGROV1 ovarian it was 25.4 µM; with HCT-116 colon, 22.4 µM; with OVCAR-5 ovarian it was more than 100 µM; in the assay on SR leukemia it was more than 100 µM; with SNB-19 CNS, more than 100 µM. The TGI in the assay on M14 melanoma was 19.9 µM; in the assay with LOX IMVI melanoma, 16.9 µM; in the assay with SW-620 colon, more than 100 µM; in the assay on HOP-92 NSCLC, 14.2 µM.
